Laboratory results as given in US11883452B2, “Use of combination or composition of Radix et Rhizoma Notoginseng and aspirin” (CHINESE ACADEMY OF MEDICAL SCIENCES INSTITUTE OF MEDICINAL …, priority 2017, dated 2024).

Legend:
Type in all cases: in vivo, SD rats
[1] = test system: rat duodenal microvilli; assay: Ultrastructure of duodenal villi with transmission electron microscope; conditions: aspirin 10 mg/kg intragastrically daily for 4 weeks; rats
Method: (§1) 40 male SD rats were randomly divided into 4 groups, with 10 rats in each group, including a control group, a group treated with aspirin at a dosage of 10 mg/kg, a group treated with the total saponins from Radix et Rhizoma Notoginseng at a dosage of 100 mg/kg and aspirin at a dosage of 10 mg/kg, and a group treated with the total saponins from Radix et Rhizoma Notoginseng at a dosage of 100 mg/kg. The rats in the groups treated with the total saponins from Radix et Rhizoma Notoginseng and aspirin were administrated intragastrically with the total saponins from Radix et Rhizoma Notoginseng and aspirin daily for 4 weeks, and the rats in the control group were administrated intragastrically with an equivalent volume of normal saline daily.
After 4 weeks of administration, the duodenum was collected from rats in each group of rats and fixed in 2.5% glutaraldehyde buffer for 2 h, then washed with PH 7.4 buffer three times, and then soaked with 1% osmium tetroxide for 30 min, dehydrated with graded alcohol and acetone, and then embedded in epoxy resin 812. Ultra-thin slices were prepared, copper grids of 200 grid units were taken, the ultra-thin slices were again impregnated with uranyl acetate and lead citrate, and then analyzed under the electron microscope to observe changes in the ultrastructure of the duodenum in rats of each group.

[2] = test system: middle cerebral artery occlusion (MCAO/R) model rats; assay: Canine urea levels in serum, hippocampus and cerebral cortex by ELISA in MCAO/R rats
Method: Middle cerebral artery occlusion (MCAO) model was established by thread embolization method. The surgical procedure was carried out under strictly aseptic conditions mainly according to the following steps: The rats were anesthetized by intraperitoneal injection of ketamine (80 mg/kg) and xylazine (10 mg/kg). The common carotid artery (CCA), external carotid artery (ECA) and internal carotid artery (ICA) were fully exposed, the common carotid artery was clamped with a vascular clip, and the branches of the external carotid artery were electrocoagulated with a bipolar electrocoagulation forceps. The main trunk of the external carotid artery was freed and ligated at 3 to 4 mm from the bifurcation of the common carotid artery. The internal carotid artery was temporarily clamped with a vascular clip. Corneal scissors were used to make a small incision in the external carotid artery. A 4-0 monofilament nylon thread coated with methylpolysiloxane was inserted and was tied a loose knot at the small incision of the external carotid artery to block the blood reflux of the internal carotid artery. The clip was removed from the internal carotid artery, and the nylon thread was gently pushed into the internal carotid artery to reach the intracranial anterior cerebral artery to block an incision of the middle cerebral artery (MCA), with an insertion depth of about 18-22 mm. The clip was removed from the common carotid artery, and the subcutaneous tissue and skin were sutured layer by layer after disinfection, and 2 hours later the nylon thread was slowly withdrawn to perform reperfusion for 24 hours. The operation to the sham operated group is the same as the above except that nylon thread is not inserted. The rectum of all rats was maintained at a temperature of 37° C. throughout the experiment.
5 mL of blood was taken from the abdominal aorta of the rats (n=8), and centrifuged at 3000 rpm for 10 min to obtain a serum. Hippocampus and cerebral cortex were separated from the brain tissue, homogenized, and centrifuged at 3000 rpm for 10 min to obtain a supernatant. Serum MDA, SOD, CAT and GSH-Px levels were detected with kits available from Nanjing Jiancheng; levels of canine urea and inflammatory response indicators MCP-1, TNF-α, IL-1β, IL-4, IL-6 and IL-10 were detected with ELISA kits.

[3] = test system: platelets in platelet-rich plasma; assay: Maximum platelet aggregation rate (ADP-induced, platelet-rich plasma) in MCAO/R rats; conditions: ADP 2 μmol/L
Method: 240 male SD rats were randomly divided into 8 groups, with 30 rats in each group, including a sham operated group, a middle cerebral artery occlusion (MCAO/R) model group, a group treated with the total saponins from Radix et Rhizoma Notoginseng at a dosage of 50 mg/kg, a group treated with aspirin at a dosage of 10 mg/kg, a group treated with aspirin at a dosage of 5 mg/kg, a group treated with the combination of the total saponins from Radix et Rhizoma Notoginseng at a dosage of 50 mg/kg and aspirin at a dosage of 5 mg/kg. The rats in the groups treated with the total saponins from Radix et Rhizoma Notoginseng and/or aspirin were administrated intragastrically with the total saponins from Radix et Rhizoma Notoginseng and/or aspirin for a week before MCAO, and the rats in the sham operated group and model group were administrated intragastrically with an equivalent volume of distilled water. […]
3.6 mL of blood was taken from the rats (n=10), anticoagulated with 3.8% sodium citrate (9:1), centrifuged at 150 g for 10 min to separate a platelet-rich plasma, and then centrifuged at 1500 g for 10 min to obtain a supernatant, which was platelet-poor plasma. […] Maximum aggregation within 5 minutes and maximum aggregation time of platelets in platelet-rich plasma were detected with a blood agglutination instrument.

[4] = test system: middle cerebral artery occlusion (MCAO/R) model rats; assay: Cerebral infarction volume by TTC staining in MCAO/R rats; conditions: 24 hours of reperfusion
Method: 240 male SD rats were randomly divided into 8 groups, with 30 rats in each group, including a sham operated group, a middle cerebral artery occlusion (MCAO/R) model group, a group treated with the total saponins from Radix et Rhizoma Notoginseng at a dosage of 50 mg/kg, a group treated with aspirin at a dosage of 10 mg/kg, a group treated with aspirin at a dosage of 5 mg/kg, a group treated with the combination of the total saponins from Radix et Rhizoma Notoginseng at a dosage of 50 mg/kg and aspirin at a dosage of 5 mg/kg. The rats in the groups treated with the total saponins from Radix et Rhizoma Notoginseng and/or aspirin were administrated intragastrically with the total saponins from Radix et Rhizoma Notoginseng and/or aspirin for a week before MCAO, and the rats in the sham operated group and model group were administrated intragastrically with an equivalent volume of distilled water.
Middle cerebral artery occlusion (MCAO) model was established by thread embolization method. The surgical procedure was carried out under strictly aseptic conditions mainly according to the following steps: The rats were anesthetized by intraperitoneal injection of ketamine (80 mg/kg) and xylazine (10 mg/kg). […]
Cerebral infarction volumes were determined by triphenyl tetrazolium chloride (TTC) staining. […] Cerebral infarction volumes were evaluated and calculated using Image-Pro plus 5.1 software.

[5] = test system: rat gastric mucosa; assay: HE staining to detect pathological changes of gastric mucosa; conditions: aspirin 10 mg/kg intragastrically daily for 4 weeks; rats
Method: as §1
After 4 weeks of administration, gastric tissues were taken from rats in each group and fixed with 4% formaldehyde solution, routinely embedded in paraffin and cut into slices, and stained with HE to observe the degree of inflammatory lesions in the tissues.

[6] = test system: middle cerebral artery occlusion (MCAO/R) model rats; assay: Neurological evaluation (Longa's five-grade score) in MCAO/R rats
[7] = test system: myocardial ischemia reperfusion injury model rats; assay: Myocardial infarction volume by TTC staining in myocardial ischemia-reperfusion injury rats; conditions: x ± s
Method: 240 male SD rats were randomly divided into 8 groups, with 30 rats in each group, including a sham operated group, a myocardial ischemia reperfusion injury model group, a group treated with the total saponins from Radix et Rhizoma Notoginseng at a dosage of 50 mg/kg, a group treated with aspirin at a dosage of 10 mg/kg, a group treated with aspirin at a dosage 5 mg/kg, a group treated with the combination of the total saponins from Radix et Rhizoma Notoginseng at a dosage of 50 mg/kg and aspirin at a dosage of 5 mg/kg. […]
The rats were anesthetized by intraperitoneal injection of pentobarbital sodium at a dose of 40 mg/kg body weight, and were connected to a small animal ventilator through an oral cannula, with a respiratory rate of 70 breaths/min, a respiratory ratio of 1:1, and a tidal volume of 1 mL. Real time electrocardiograms of the rats were recorded on a multi-lead physiological recorder available from AD Instruments. […]
Myocardial infarction volumes were evaluated by triphenyl tetrazolium chloride (TTC) staining. […] Myocardial infarction volumes were evaluated and calculated using Image-Pro plus 5.1 software

[8] = test system: middle cerebral artery occlusion (MCAO/R) model rats; assay: Serum inflammatory factors by ELISA in MCAO/R rats
[9] = test system: myocardial ischemia reperfusion injury model rats; assay: Three myocardial enzymes (AST, LDH, CK) in myocardial ischemia-reperfusion injury rats
Method: Rats in the groups treated with the total saponins from Radix et Rhizoma Notoginseng and/or aspirin were administrated intragastrically with the total saponins from Radix et Rhizoma Notoginseng and/or aspirin for a week, and rats in the sham operated group and model group were administrated intragastrically with an equivalent volume of distilled water. […] Real time electrocardiograms of the rats were recorded on a multi-lead physiological recorder available from AD Instruments. Thoracotomy was performed on the rats. An incision of 2 to 3 cm was made at a place between the 3rd and 4th ribs and about 0.5 cm from the left side of the sternum, a chest expander was used to open the ribs, and the pericardium was cut when exhaling to expose the heart. Myocardial ischemia was established by ligating the left coronary artery. […] After being stabilized for 5 minutes, the silk thread was passed through a disposable intravenous infusion hose with a length of about 3.5 cm. After the silk thread was pulled out, the silk thread was gently lifted, and the hose was pushed down and was fixed with a hemostatic forceps. […] The ligation was considered successful if: the ST segment was elevated, and the color of local myocardial tissue changed from red to gray; and after 30 minutes of reperfusion, the ST segment fell by more than 50%, and the color of myocardial tissue changed from gray to red. After the reperfusion was completed, blood was taken from the abdominal aorta and analyzed on an automatic biochemical analyzer to detect the levels of three myocardial enzymes (AST, LDH, CK) in plasma.

[10] = aspirin 5 mg/kg intragastrically for a week
[11] = aspirin 10 mg/kg intragastrically for a week
[12] = aspirin 5 mg/kg intragastrically for a week before MCAO
[13] = aspirin 10 mg/kg intragastrically for a week before MCAO

CC(=O)Oc1ccccc1C(=O)O [aspirin]
microvilli on the duodenal surface (electron microscope) compared with the control group [1]: the microvilli on the duodenal surface decreased
Canine urea levels in cerebral cortex tissue ([2]; aspirin 5 mg/kg): 8.95 µg/L
Canine urea levels in hippocampus ([2]; aspirin 5 mg/kg): 2.11 µg/L
Canine urea levels in serum ([2]; aspirin 5 mg/kg): 18.00 µg/L
Canine urea levels in cerebral cortex tissue ([2]; aspirin 10 mg/kg): 8.12 µg/L
Canine urea levels in hippocampus ([2]; aspirin 10 mg/kg): 2.01 µg/L
Canine urea levels in serum ([2]; aspirin 10 mg/kg): 17.25 µg/L
Maximum platelet aggregation rate (%) [3, 10]: 56.80%
Maximum platelet aggregation rate (%) [3, 11]: 62.63%
Volume of cerebral infarction [4, 12]: 16.08
Volume of cerebral infarction [4, 13]: 13.96
gastric mucosa pathology (HE staining) compared with the control group [5]: gastric mucosal epithelial cells were necrotic and inflammatory cells infiltrated
Score (neurological deficit, Longa) [6, 12]: 1.83
Score (neurological deficit, Longa) [6, 13]: 1.08
Myocardial infarction volume (%) [7, 10]: 9.88%
Myocardial infarction volume (%) [7, 11]: 8.75%
IL-1β ([8]; aspirin 5 mg/kg): 168.58 pg/mL
IL-4 ([8]; aspirin 5 mg/kg): 36.57 pg/mL
IL-6 ([8]; aspirin 5 mg/kg): 47.12 pg/mL
IL-1β ([8]; aspirin 10 mg/kg): 189.69 pg/mL
IL-4 ([8]; aspirin 10 mg/kg): 35.45 pg/mL
IL-6 ([8]; aspirin 10 mg/kg): 47.15 pg/mL
AST(U/L) [9, 10]: 312.48 U/L
CK(U/L) [9, 10]: 1823.49 U/L
LDH(U/L) [9, 10]: 1105.54 U/L
AST(U/L) [9, 11]: 204.32 U/L
CK(U/L) [9, 11]: 1222.54 U/L
LDH(U/L) [9, 11]: 811.85 U/L
